Measurements reported in the NIST ThermoML archive (doi:10.1016/j.tca.2016.06.015).
± gives the expanded uncertainty stated by the source.

Assay: molar heat capacity at constant pressure
Conditions: Liquid, Flow calorimetry

CCCCCCCCCC [decane]
molar heat capacity at constant pressure (305.7 K, 4000 kPa): 293.1 ± 18 J/K/mol | molar heat capacity at constant pressure (316.2 K, 4000 kPa): 305.91 ± 20 J/K/mol | molar heat capacity at constant pressure (326.5 K, 4000 kPa): 304.48 ± 20 J/K/mol | molar heat capacity at constant pressure (335.3 K, 4000 kPa): 315.87 ± 20 J/K/mol | molar heat capacity at constant pressure (344 K, 4000 kPa): 324.4 ± 21 J/K/mol | molar heat capacity at constant pressure (354.1 K, 4000 kPa): 322.98 ± 20 J/K/mol | molar heat capacity at constant pressure (366.8 K, 4000 kPa): 327.25 ± 21 J/K/mol | molar heat capacity at constant pressure (377.6 K, 4000 kPa): 340.05 ± 21 J/K/mol | molar heat capacity at constant pressure (389.8 K, 4000 kPa): 335.78 ± 21 J/K/mol | molar heat capacity at constant pressure (401.5 K, 4000 kPa): 344.32 ± 21 J/K/mol | molar heat capacity at constant pressure (423.6 K, 4000 kPa): 361.4 ± 23 J/K/mol | molar heat capacity at constant pressure (432.6 K, 4000 kPa): 367.09 ± 23 J/K/mol | molar heat capacity at constant pressure (443.4 K, 4000 kPa): 372.78 ± 24 J/K/mol | molar heat capacity at constant pressure (453.9 K, 4000 kPa): 377.05 ± 24 J/K/mol | molar heat capacity at constant pressure (463.9 K, 4000 kPa): 389.85 ± 24 J/K/mol | molar heat capacity at constant pressure (475.4 K, 4000 kPa): 396.97 ± 26 J/K/mol | molar heat capacity at constant pressure (486.6 K, 4000 kPa): 419.73 ± 27 J/K/mol | molar heat capacity at constant pressure (496 K, 4000 kPa): 414.04 ± 27 J/K/mol | molar heat capacity at constant pressure (504.1 K, 4000 kPa): 432.54 ± 27 J/K/mol | molar heat capacity at constant pressure (516.7 K, 4000 kPa): 415.46 ± 27 J/K/mol | molar heat capacity at constant pressure (528.9 K, 4000 kPa): 424 ± 27 J/K/mol | molar heat capacity at constant pressure (539.4 K, 4000 kPa): 433.96 ± 27 J/K/mol | molar heat capacity at constant pressure (551.9 K, 4000 kPa): 453.88 ± 28 J/K/mol | molar heat capacity at constant pressure (564.4 K, 4000 kPa): 453.88 ± 28 J/K/mol | molar heat capacity at constant pressure (574.2 K, 4000 kPa): 470.95 ± 30 J/K/mol | molar heat capacity at constant pressure (584.4 K, 4000 kPa): 488.03 ± 31 J/K/mol | molar heat capacity at constant pressure (595.2 K, 4000 kPa): 507.95 ± 33 J/K/mol | molar heat capacity at constant pressure (603.1 K, 4000 kPa): 513.64 ± 33 J/K/mol | molar heat capacity at constant pressure (608.6 K, 4000 kPa): 486.6 ± 31 J/K/mol | molar heat capacity at constant pressure (614.1 K, 4000 kPa): 497.99 ± 31 J/K/mol

O [water]
molar heat capacity at constant pressure (305.9 K, 3000 kPa): 77.29 ± 4.9 J/K/mol | molar heat capacity at constant pressure (315.6 K, 3000 kPa): 72.96 ± 4.7 J/K/mol | molar heat capacity at constant pressure (325.4 K, 3000 kPa): 73.14 ± 4.7 J/K/mol | molar heat capacity at constant pressure (335.8 K, 3000 kPa): 76.56 ± 4.9 J/K/mol | molar heat capacity at constant pressure (345.8 K, 3000 kPa): 74.58 ± 4.7 J/K/mol | molar heat capacity at constant pressure (354 K, 3000 kPa): 78.01 ± 5 J/K/mol | molar heat capacity at constant pressure (366.2 K, 3000 kPa): 74.22 ± 4.7 J/K/mol | molar heat capacity at constant pressure (381.2 K, 3000 kPa): 77.65 ± 5 J/K/mol | molar heat capacity at constant pressure (394.4 K, 3000 kPa): 74.58 ± 4.7 J/K/mol | molar heat capacity at constant pressure (407.3 K, 3000 kPa): 76.2 ± 4.9 J/K/mol | molar heat capacity at constant pressure (419.9 K, 3000 kPa): 76.38 ± 4.9 J/K/mol | molar heat capacity at constant pressure (433.9 K, 3000 kPa): 76.02 ± 4.9 J/K/mol
